{"source": "patent EP1587517B1", "about": "“ANTI-PROTOZOAL COMPOSITIONS COMPRISING DICLAZURIL” (JANSSEN PHARMACEUTICA N.V., priority 2003, dated 2004)", "origin": "cited, not measured here", "note": "Like-named read-outs stand apart in the source and are kept apart here."}
{"smiles": "N#CC(c1ccc(Cl)cc1)c1c(Cl)cc(-n2ncc(=O)[nH]c2=O)cc1Cl", "note": "(stereo not shown) [diclazuril]", "values": [{"measurement": "solubility", "setting": "N,N-dimethylformamide", "result": 32.6, "unit": "mg/mL"}, {"measurement": "solubility", "setting": "dimethyl sulphoxide", "result": 48, "unit": "mg/mL"}, {"measurement": "solubility", "setting": "tetrahydrofuran", "result": 8.2, "unit": "mg/mL"}, {"measurement": "saturation concentrations in water", "setting": "water", "result": "below 1 µg/L"}]}
